Data reported in patent US20260092071A1, “COMPOUNDS AND COMPOSITIONS AS SMARCA2/4 DEGRADERS AND USES THEREOF” (REGENTS OF THE UNIVERSITY OF MICHIGAN, priority 2022, published 2026).
Read-outs that look alike come from different tables or passages of the source.

Experiments:
SMARCA4 = SMARCA4 (Homo sapiens, UniProt P51532); assay: HiBiT assay for protein degradation, Hela SMARCA4-HiBiT cells (A series); assay type: cell-based; set-up: fuse HiBiT to the carboxy terminus of SMARCA2 (Promega CS302365) or SMARCA4 (Promega CS3023225); host or cells: HeLa (CRISPR/Cas9 HiBiT knock-in); settings: for DC50: read-out: SMARC A4 Hela HiBit DC50
Outline: (§1)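 HeLa cells engineered by CRISPR/Cas9 to carry a HiBiT tag fused to the C-terminus of SMARCA4 (Promega CS3023225) were grown in DMEM supplemented with FBS and penicillin-streptomycin. After compound exposure, remaining SMARCA4 protein was quantified using the Nano-Glo® HiBiT Lytic Detection Assay (Promega N3050), and curves were fitted in GraphPad Prism.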

SMARCA2 = SMARCA2 (Homo sapiens, UniProt P51531); assay: HiBiT assay for protein degradation, Hela SMARCA2-HiBiT cells (A series); assay type: cell-based; set-up: Hela cells were genetically modified via CRISPR/Cas9 to fuse HiBiT to the carboxy terminus of SMARCA2; host or cells: HeLa (CRISPR/Cas9 HiBiT knock-in); settings: for DC50: read-out: SMARC A2 Hela HiBit DC50; for Dmax: read-out: SMARC A2 Hela HiBit Dmax (%);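 as to SMARC A2 Hela HiBit Dmax (%): 24 h compound treatment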
Outline: as §1, with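 “SMARCA2” for “SMARCA4”, “CS302365)” for “CS3023225)”, “treatment,” for “compound exposure,”, “with” for “using”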

[1] = Hela SMARCA4-HiBiT cells, 24 hours treatment
[2] = Hela SMARCA4-HiBiT cells, 24 hours treatment, read-out: SMARC A4 Hela HiBit Dmax
[3] = Hela SMARCA2-HiBiT cells, 24 hours treatment
[4] = HeLa, read-out: SMARC A4 Hela HiBit Dmax(%)
[5] = Hela SMARCA4-HiBiT cells, 24 hours treatment, read-out: SMARC A4 Hela HiBit Dmax(%)

Sequence of SMARCA4 (P51532 whole entry, the tested form may be a part): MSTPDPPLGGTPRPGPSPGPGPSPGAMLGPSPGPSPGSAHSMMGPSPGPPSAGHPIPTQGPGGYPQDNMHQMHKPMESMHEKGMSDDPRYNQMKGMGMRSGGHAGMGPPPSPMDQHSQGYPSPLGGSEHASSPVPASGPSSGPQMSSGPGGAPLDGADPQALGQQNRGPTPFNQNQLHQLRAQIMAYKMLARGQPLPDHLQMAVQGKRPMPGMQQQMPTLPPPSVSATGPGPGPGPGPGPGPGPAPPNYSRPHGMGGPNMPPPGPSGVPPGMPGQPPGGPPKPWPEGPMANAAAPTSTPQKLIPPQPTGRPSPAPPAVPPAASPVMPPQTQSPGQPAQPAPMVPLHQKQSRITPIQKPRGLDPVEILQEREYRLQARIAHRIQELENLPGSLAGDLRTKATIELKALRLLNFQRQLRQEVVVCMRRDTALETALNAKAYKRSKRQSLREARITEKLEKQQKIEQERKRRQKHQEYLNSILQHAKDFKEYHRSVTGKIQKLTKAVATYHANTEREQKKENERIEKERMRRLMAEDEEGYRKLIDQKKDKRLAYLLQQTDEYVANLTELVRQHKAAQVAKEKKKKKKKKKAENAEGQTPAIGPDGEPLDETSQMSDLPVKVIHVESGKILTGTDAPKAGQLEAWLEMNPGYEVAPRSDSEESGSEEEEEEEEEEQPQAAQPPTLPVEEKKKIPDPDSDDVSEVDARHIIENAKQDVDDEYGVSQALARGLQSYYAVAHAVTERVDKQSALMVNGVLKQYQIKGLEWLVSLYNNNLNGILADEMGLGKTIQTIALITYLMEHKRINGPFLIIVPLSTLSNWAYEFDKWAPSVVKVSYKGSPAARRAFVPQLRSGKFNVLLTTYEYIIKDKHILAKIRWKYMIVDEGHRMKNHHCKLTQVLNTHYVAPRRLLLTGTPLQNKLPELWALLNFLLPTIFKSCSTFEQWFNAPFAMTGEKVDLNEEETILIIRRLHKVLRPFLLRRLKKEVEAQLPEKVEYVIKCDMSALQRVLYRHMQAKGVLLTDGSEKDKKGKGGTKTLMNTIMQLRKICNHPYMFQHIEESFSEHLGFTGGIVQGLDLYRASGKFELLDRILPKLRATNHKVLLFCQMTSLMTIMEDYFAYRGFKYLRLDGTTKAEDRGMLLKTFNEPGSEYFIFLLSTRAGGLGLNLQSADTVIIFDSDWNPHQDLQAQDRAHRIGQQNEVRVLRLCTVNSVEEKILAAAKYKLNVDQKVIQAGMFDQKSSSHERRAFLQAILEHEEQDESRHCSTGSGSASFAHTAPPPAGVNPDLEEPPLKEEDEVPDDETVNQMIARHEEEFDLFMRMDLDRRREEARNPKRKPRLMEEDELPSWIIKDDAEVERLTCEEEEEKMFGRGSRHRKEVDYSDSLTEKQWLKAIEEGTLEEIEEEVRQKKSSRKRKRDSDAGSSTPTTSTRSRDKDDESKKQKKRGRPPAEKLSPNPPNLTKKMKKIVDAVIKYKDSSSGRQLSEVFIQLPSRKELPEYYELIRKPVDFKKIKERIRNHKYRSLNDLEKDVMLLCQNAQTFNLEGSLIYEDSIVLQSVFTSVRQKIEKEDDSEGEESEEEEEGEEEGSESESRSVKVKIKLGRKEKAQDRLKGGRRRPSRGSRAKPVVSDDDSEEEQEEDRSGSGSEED
Sequence of SMARCA2 (P51531 whole entry): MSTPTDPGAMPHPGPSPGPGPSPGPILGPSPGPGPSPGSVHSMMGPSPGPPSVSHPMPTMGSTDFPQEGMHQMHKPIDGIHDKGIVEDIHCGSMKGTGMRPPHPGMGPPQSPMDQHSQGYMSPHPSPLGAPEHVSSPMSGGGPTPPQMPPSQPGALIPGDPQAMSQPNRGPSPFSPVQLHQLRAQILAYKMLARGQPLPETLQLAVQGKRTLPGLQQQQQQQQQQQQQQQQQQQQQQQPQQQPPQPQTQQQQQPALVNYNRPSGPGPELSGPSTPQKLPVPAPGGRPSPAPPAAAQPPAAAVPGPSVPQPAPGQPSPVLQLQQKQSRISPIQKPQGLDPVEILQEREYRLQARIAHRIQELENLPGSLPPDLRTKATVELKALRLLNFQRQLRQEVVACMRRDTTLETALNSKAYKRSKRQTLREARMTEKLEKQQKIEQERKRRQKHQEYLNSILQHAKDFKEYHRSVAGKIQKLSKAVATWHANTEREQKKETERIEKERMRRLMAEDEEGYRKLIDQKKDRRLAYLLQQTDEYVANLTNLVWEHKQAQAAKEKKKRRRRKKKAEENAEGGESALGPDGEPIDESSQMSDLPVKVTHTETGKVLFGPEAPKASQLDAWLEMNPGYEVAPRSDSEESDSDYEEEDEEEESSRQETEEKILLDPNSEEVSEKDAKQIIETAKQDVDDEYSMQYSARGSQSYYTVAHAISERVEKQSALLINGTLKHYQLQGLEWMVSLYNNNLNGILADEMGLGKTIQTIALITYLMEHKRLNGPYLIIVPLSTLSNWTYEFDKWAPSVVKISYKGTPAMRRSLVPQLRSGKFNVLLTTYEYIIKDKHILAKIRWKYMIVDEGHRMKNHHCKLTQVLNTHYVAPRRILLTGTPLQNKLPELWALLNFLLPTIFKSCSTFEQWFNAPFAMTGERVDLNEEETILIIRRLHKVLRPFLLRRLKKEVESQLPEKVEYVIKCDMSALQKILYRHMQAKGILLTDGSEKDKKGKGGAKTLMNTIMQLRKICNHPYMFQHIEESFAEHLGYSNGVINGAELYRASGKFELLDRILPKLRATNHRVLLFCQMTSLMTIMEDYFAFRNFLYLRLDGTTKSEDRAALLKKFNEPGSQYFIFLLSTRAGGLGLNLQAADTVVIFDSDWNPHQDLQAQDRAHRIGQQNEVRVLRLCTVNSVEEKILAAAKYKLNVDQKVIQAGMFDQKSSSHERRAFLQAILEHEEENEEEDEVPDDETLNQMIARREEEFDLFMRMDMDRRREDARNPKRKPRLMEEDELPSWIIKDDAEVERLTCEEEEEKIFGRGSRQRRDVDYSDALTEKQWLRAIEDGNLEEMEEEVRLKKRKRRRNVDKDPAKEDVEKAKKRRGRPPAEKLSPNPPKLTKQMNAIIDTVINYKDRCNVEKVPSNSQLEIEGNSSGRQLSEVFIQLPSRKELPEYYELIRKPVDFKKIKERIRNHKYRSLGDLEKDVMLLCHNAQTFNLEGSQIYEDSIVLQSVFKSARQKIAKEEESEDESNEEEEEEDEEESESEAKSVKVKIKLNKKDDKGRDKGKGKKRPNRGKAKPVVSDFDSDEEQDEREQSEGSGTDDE

Compound | Dmax (SMARCA4; [2]) | DC50 (SMARCA2; [3]) | Dmax (SMARCA2; [3]) | DC50 (SMARCA4; [1]) | Dmax (SMARCA4; [5]) | further results
Cc1ncsc1-c1ccc([C@H](C)NC(=O)[C@@H]2C[C@@H](O)CN2C(=O)[C@H](C2CCOCC2)n2cc([C@H]3CC[C@H](CN4CCC(c5ccc6c(c5)-n5c(nc(=O)c7c(Cl)cccc75)C65CCCCC5)CC4)CC3)nn2)cc1 [Compound A120, (2S,4R)-1-((S)-2-(4-((1r,4S)-4-((4-(4′-chloro-5′-oxo-5′H-spiro[cyclohexane-1,7′-indolo[1,2-a]quinazolin]-10′-yl)piperidin-1-yl)methyl)cyclohexyl)-1H-1,2,3-triazol-1-yl)-2-(tetrahydro-2H-pyran-4-yl)acetyl)-4-hydroxy-N—((S)-1-(4-(4-methylthiazol-5-yl)phenyl)ethyl)pyrrolidine-2-carboxamide] | 50 to 69% | < 10 nM | > 90% | – | – | SMARC A4 Hela HiBit DC50(nM) (SMARCA4; [1]): No fit
Cc1ncsc1-c1ccc([C@H](C)NC(=O)[C@@H]2C[C@@H](O)CN2C(=O)[C@H](C2CCCCC2)n2cc([C@H]3CC[C@H](CN4CCC(c5ccc6c(c5)-n5c(nc(=O)c7c(Cl)cccc75)C6(C)C)CC4)CC3)nn2)cc1 [Compound A124, (2S,4R)-1-((S)-2-(4-((1r,4S)-4-((4-(4-chloro-7,7-dimethyl-5-oxo-5,7-dihydroindolo[1,2-a]quinazolin-10-yl)piperidin-1-yl)methyl)cyclohexyl)-1H-1,2,3-triazol-1-yl)-2-cyclohexylacetyl)-4-hydroxy-N—((S)-1-(4-(4-methylthiazol-5-yl)phenyl)ethyl)pyrrolidine-2-carboxamide] | < 50% | < 10 nM | > 90% | – | – | SMARC A4 Hela HiBit DC50(nM) (SMARCA4; [1]): No fit
Cc1ncsc1-c1ccc([C@H](C)NC(=O)[C@@H]2C[C@@H](O)CN2C(=O)[C@@H](n2cc([C@H]3CC[C@H](CN4CCC(c5ccc6c(c5)-n5c(nc(=O)c7c(Br)cccc75)C65CCCCC5)CC4)CC3)nn2)C(C)(C)C)cc1 [Compound A62, (2S,4R)-1-((S)-2-(4-((1r,4S)-4-((4-(4′-bromo-5′-oxo-5′H-spiro[cyclohexane-1,7′-indolo[1,2-a]quinazolin]-10′-yl)piperidin-1-yl)methyl)cyclohexyl)-1H-1,2,3-triazol-1-yl)-3,3-dimethylbutanoyl)-4-hydroxy-N—((S)-1-(4-(4-methylthiazol-5-yl)phenyl)ethyl)pyrrolidine-2-carboxamide] | – | – | – | – | – | Dmax (SMARCA4; [4]): 70 to 90%; DC50 (SMARCA4): < 100 nM; Dmax (SMARCA2; HeLa): > 90%; DC50 (SMARCA2): < 100 nM
Cc1ncsc1-c1ccc([C@H](C)NC(=O)[C@@H]2C[C@@H](O)CN2C(=O)[C@@H](NC(=O)CCCCCN2CCC(c3ccc4c(c3)C3(CCCCC3)c3nc(=O)c5c(Cl)cccc5n3-4)CC2)C(C)(C)C)cc1 [Compound A9, (2S,4R)-1-((S)-2-(6-(4-(4′-chloro-5′-oxo-5′H-spiro[cyclohexane-1,7′-indolo[1,2-a]quinazolin]-9′-yl)piperidin-1-yl)hexanamido)-3,3-dimethylbutanoyl)-4-hydroxy-N—((S)-1-(4-(4-methylthiazol-5-yl)phenyl)ethyl) pyrrolidine-2-carboxamide] | – | < 100 nM | – | 501 to 1000 nM | – | Dmax (SMARCA4; [4]): 50 to 69%; Dmax (SMARCA2; HeLa): > 90%
Cc1ncsc1-c1ccc([C@H](CN2CCOCC2)NC(=O)[C@@H]2C[C@@H](O)CN2C(=O)[C@H](C(C)C)n2cc([C@H]3CC[C@H](CN4CCC(c5ccc6c(c5)-n5c(nc(=O)c7c(Cl)cccc75)C65CCCCC5)CC4)CC3)nn2)cc1 [Compound A103, (2S,4R)-1-((S)-2-(4-((1r,4S)-4-((4-(4′-chloro-5′-oxo-5′H-spiro[cyclohexane-1,7′-indolo[1,2-a]quinazolin]-10′-yl)piperidin-1-yl)methyl)cyclohexyl)-1H-1,2,3-triazol-1-yl)-3-methylbutanoyl)-4-hydroxy-N-((R)-1-(4-(4-methylthiazol-5-yl)phenyl)-2-morpholinoethyl)pyrrolidine-2-carboxamide] | 50 to 69% | < 10 nM | > 90% | < 10 nM | – | –
COCCOC[C@H](NC(=O)[C@@H]1C[C@@H](O)CN1C(=O)[C@@H](n1cc([C@H]2CC[C@H](CN3CCC(c4ccc5c(c4)-n4c(nc(=O)c6c(Cl)cccc64)C54CCCCC4)CC3)CC2)nn1)C(C)(C)C)c1ccc(-c2scnc2C)cc1 [Compound A86, (2S,4R)-1-((S)-2-(4-((1r,4S)-4-((4-(4′-chloro-5′-oxo-5′H-spiro[cyclohexane-1,7′-indolo[1,2-a]quinazolin]-10′-yl)piperidin-1-yl)methyl)cyclohexyl)-1H-1,2,3-triazol-1-yl)-3,3-dimethylbutanoyl)-4-hydroxy-N-(®-2-(2-methoxyethoxy)-1-(4-(4-methylthiazol-5-yl)phenyl)ethyl)pyrrolidine-2-carboxamide] | 50 to 69% | < 10 nM | > 90% | > 1000 nM | – | –
Cc1ncsc1-c1ccc([C@H](C)NC(=O)[C@@H]2C[C@@H](O)CN2C(=O)[C@@H](NC(=O)CN2CCC(c3ccc4c(c3)-n3c(nc(=O)c5c(Cl)cccc53)C43CCCCC3)CC2)C(C)(C)C)cc1 [Compound A39, (2S,4R)-1-((S)-2-(2-(4-(4′-chloro-5′-oxo-5′H-spiro[cyclohexane-1,7′-indolo[1,2-a]quinazolin]-10′-yl)piperidin-1-yl)acetamido)-3,3-dimethylbutanoyl)-4-hydroxy-N—((S)-1-(4-(4-methylthiazol-5-yl)phenyl)ethyl)pyrrolidine-2-carboxamide] | – | < 100 nM | > 90% | < 100 nM | > 90% | –
Cc1ncsc1-c1ccc([C@H](CCCCCN2CCC(c3ccc4c(c3)C3(CCCCC3)c3nc(=O)c5c(Br)cccc5n3-4)CC2)NC(=O)[C@H]2C[C@H](O)CN2C(=O)[C@@H](n2cc(C3CC3)nn2)C(C)(C)C)cc1 [Compound A35, (2R,4S)—N—((S)-6-(4-(4′-bromo-5′-oxo-5′H-spiro[cyclohexane-1,7′-indolo[1,2-a]quinazolin]-9′-yl)piperidin-1-yl)-1-(4-(4-methylthiazol-5-yl)phenyl)hexyl)-1-((S)-2-(4-cyclopropyl-1H-1,2,3-triazol-1-yl)-3,3-dimethylbutanoyl)-4-hydroxypyrrolidine-2-carboxamide] | – | < 100 nM | > 90% | < 100 nM | > 90% | –
Cc1ncsc1-c1ccc([C@H](CN(C)C)NC(=O)[C@@H]2C[C@@H](O)CN2C(=O)[C@@H](NC(=O)[C@H]2CC[C@H](CN3CCC(c4ccc5c(c4)C4(CCCCC4)c4nc(=O)c6c(Br)cccc6n4-5)CC3)CC2)C(C)(C)C)cc1 [Compound A15] | – | < 100 nM | > 90% | – | < 50% | SMARC A4 Hela HiBit DC50(nM) (SMARCA4; [1]): No Fit
Cc1ncsc1-c1ccc([C@H](C)NC(=O)[C@@H]2C[C@@H](O)CN2C(=O)[C@@H](n2cc(CN3CCC(c4ccc5c(c4)-n4c(nc(=O)c6c(Br)cccc64)C54CCCCC4)CC3)nn2)C(C)(C)C)cc1 [Compound A43, (2S,4R)-1-((S)-2-(4-((4-(4′-bromo-5′-oxo-5′H-spiro[cyclohexane-1,7′-indolo[1,2-a]quinazolin]-10′-yl)piperidin-1-yl)methyl)-1H-1,2,3-triazol-1-yl)-3,3-dimethylbutanoyl)-4-hydroxy-N—((S)-1-(4-(4-methylthiazol-5-yl)phenyl)ethyl)pyrrolidine-2-carboxamide] | – | < 100 nM | > 90% | < 100 nM | 70 to 90% | –
Cc1ncsc1-c1ccc([C@H](CN2CCOCC2)NC(=O)[C@@H]2C[C@@H](O)CN2C(=O)[C@@H](NC(=O)C23CCC(CN4CCC(c5ccc6c(c5)-n5c(nc(=O)c7c(Br)cccc75)C65CCCCC5)CC4)(CC2)C3)C(C)(C)C)cc1 [Compound A24, (2S,4R)-1-((S)-2-(4-((4-(4′-bromo-5′-oxo-5′H-spiro[cyclohexane-1,7′-indolo[1,2-a]quinazolin]-10′-yl)piperidin-1-yl)methyl)bicyclo[2.2.1]heptane-1-carboxamido)-3,3-dimethylbutanoyl)-4-hydroxy-N—((R)-1-(4-(4-methylthiazol-5-yl)phenyl)-2-morpholinoethyl)pyrrolidine-2-carboxamide] | – | – | – | – | – | SMARC A4 Hela HiBit Dmax(%) (SMARCA4; [1]): B (B (70-90% degradation)); DC50 (SMARCA4): 100 to 500 nM; SMARC A2 Hela HiBit Dmax (%) (SMARCA2; [3]): A (A (>90% degradation)); DC50 (SMARCA2): < 100 nM
